Experimental data reported in PubChem BioAssay (NCI).
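Compound exposure: 48 hours, 5 concentrations, 96-well plates. At the GI50, growth is halved. TGI denotes the concentration required for complete inhibition of growth.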

Key:
Assay in all cases: inhibition of tumour cell growth, NCI panel, 48 h
MOLT-4 leukemia = test system: MOLT-4 leukemia
NCI-H460 lung = test system: NCI-H460 lung
UO-31 renal = test system: UO-31 renal
ACHN renal = test system: ACHN renal
NCI-H226 lung = test system: NCI-H226 lung
U251 CNS = test system: U251 CNS
UACC-62 melanoma = test system: UACC-62 melanoma
RPMI-8226 leukemia = test system: RPMI-8226 leukemia
SK-MEL-2 melanoma = test system: SK-MEL-2 melanoma
SW-620 colon = test system: SW-620 colon

Compound	TGI (MOLT-4 leukemia) [µM]	TGI (NCI-H460 lung) [µM]	TGI (UO-31 renal) [µM]	TGI (ACHN renal) [µM]	TGI (NCI-H226 lung) [µM]	TGI (U251 CNS) [µM]	TGI (UACC-62 melanoma) [µM]	TGI (RPMI-8226 leukemia) [µM]	TGI (SK-MEL-2 melanoma) [µM]	TGI (SW-620 colon) [µM]	GI50 (MOLT-4 leukemia) [µM]	GI50 (NCI-H460 lung) [µM]	GI50 (UO-31 renal) [µM]	GI50 (ACHN renal) [µM]	GI50 (NCI-H226 lung) [µM]	GI50 (U251 CNS) [µM]	GI50 (UACC-62 melanoma) [µM]	GI50 (RPMI-8226 leukemia) [µM]	GI50 (SK-MEL-2 melanoma) [µM]	GI50 (SW-620 colon) [µM]
OCC(O)C(O)C(O)C1SC(c2ccccc2)=NN1c1ccccc1 (stereo not given)	> 100	> 100	> 100	> 83	> 100	> 100	74.2	> 100	93.2	> 100	–	–	–	–	–	–	–	–	–	–
CC(=O)[CH-]C(=O)c1ccccc1.CC(=O)[CH-]C(=O)c1ccccc1.CC(=O)[CH-]C(=O)c1ccccc1.[Tl+3]	> 69.4	> 100	> 100	> 100	> 100	> 100	> 100	> 100	> 100	> 100	18.8	22.6	30.2	51.1	35.7	42.6	32	11.1	15.7	57.5
